In patent US20240109917A1 (ACTELION PHARMACEUTICALS LTD, priority 2020, published 2024):
Like-named read-outs stand apart in the source and are kept apart here.

Columns and labels:
[1] = target: His6-TEV-PDGFRβ (557-1016) (Homo sapiens (Human), UniProt P09619); test: PDGFRβ HTRF Assay; type: biochemical; details: read-out: PDGFR HTRF IC50
Method in brief: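 Human PDGFRβ (557-1016) pre-incubated with compound for 30 min at RT in pH 7.5 HEPES/MgCl2/EGTA/Brij-35/DTT buffer. Reaction started with ATP and TK-biotin peptide, run 3 h at RT, then quenched with EDTA-containing Eu-cryptate antibody/streptavidin-XL665. HTRF 665/620 nm ratio read after 60 min; percent inhibition relative to DMSO and 10 μM imatinib controls.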

[2] = target: PDGFRβ (Rattus norvegicus (Rat), UniProt Q05030); test: PDGFRβ Cellular Assay (PDGFRb P-Y751 HTRF in A10 cells stimulated with PDGF-BB); type: cell-based
Chain of PDGFRβ (Q05030 32-1097): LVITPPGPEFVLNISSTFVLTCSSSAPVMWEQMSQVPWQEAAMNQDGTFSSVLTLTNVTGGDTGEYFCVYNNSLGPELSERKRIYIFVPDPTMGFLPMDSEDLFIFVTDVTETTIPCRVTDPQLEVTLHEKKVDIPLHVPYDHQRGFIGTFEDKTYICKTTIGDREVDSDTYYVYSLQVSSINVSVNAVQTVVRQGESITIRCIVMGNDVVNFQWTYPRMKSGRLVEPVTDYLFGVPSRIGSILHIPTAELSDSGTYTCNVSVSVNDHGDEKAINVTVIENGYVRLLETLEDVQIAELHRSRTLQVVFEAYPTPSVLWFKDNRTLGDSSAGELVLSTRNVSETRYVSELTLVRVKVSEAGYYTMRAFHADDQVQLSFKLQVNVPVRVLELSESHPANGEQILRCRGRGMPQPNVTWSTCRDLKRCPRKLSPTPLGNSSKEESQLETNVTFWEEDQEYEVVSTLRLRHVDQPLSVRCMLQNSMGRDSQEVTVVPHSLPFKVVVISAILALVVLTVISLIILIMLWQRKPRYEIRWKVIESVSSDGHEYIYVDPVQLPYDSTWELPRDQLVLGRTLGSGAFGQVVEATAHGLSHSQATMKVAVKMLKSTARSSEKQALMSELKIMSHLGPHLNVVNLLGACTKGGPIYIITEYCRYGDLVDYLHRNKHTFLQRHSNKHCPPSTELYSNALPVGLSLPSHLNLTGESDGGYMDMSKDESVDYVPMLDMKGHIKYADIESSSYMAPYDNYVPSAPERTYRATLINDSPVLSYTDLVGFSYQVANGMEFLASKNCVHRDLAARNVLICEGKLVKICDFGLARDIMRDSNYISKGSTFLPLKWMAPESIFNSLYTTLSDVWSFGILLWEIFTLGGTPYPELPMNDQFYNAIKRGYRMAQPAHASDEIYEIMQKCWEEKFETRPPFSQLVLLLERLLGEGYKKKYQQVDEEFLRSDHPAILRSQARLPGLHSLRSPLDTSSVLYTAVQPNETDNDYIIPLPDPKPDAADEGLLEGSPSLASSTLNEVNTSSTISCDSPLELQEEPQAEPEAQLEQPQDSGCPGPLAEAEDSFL
Method in brief: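 Rat A10 cells, plated overnight, were treated with compound for 3 hours, then stimulated with PDGF-BB (working stock 100 ng/mL in 10% FBS medium). After lysis, PDGFRβ P-Y751 was detected by HTRF.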

Chain of His6-TEV-PDGFRβ (557-1016) (P09619 557-1016): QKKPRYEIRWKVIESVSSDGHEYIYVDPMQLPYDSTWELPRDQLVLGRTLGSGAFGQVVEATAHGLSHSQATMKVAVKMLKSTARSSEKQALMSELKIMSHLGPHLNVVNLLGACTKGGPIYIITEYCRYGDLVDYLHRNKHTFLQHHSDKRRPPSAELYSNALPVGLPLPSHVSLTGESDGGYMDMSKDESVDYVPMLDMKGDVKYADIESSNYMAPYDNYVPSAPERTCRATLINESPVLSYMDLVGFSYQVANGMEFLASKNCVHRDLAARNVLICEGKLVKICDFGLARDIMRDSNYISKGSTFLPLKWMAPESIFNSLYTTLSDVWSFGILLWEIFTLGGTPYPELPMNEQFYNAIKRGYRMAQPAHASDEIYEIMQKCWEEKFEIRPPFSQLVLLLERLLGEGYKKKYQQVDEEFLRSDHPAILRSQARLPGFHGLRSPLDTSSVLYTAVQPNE

SMILES	IC50 [1] [nM]	IC50 ([2]; read-out: PDGFR Cellular IC50) [nM]	IC50 ([2]; PDGFR Cellular IC50) [nM]
COCCn1cc(-c2cn3ncc(C(=O)Nc4cc(NC(=O)CN5CCC(C6CC6)C5)cnc4C)c3s2)cn1 (centres unmarked) [Example 341, N-(5-(2-(3-cyclopropylpyrrolidin-1-yl)acetamido)-2-methylpyridin-3-yl)-2-(1-(2-methoxyethyl)-1H-pyrazol-4-yl)pyrazolo[5,1-b]thiazole-7-carboxamide]	0.4	5.1	
COCCn1cc(-c2cn3ncc(C(=O)Nc4cc(NC(=O)CN5CCC56CCC6)cnc4C)c3s2)cn1 [Example 333, N-(5-(2-(1-azaspiro[3.3]heptan-1-yl)acetamido)-2-methylpyridin-3-yl)-2-(1-(2-methoxyethyl)-1H-pyrazol-4-yl)pyrazolo[5,1-b]thiazole-7-carboxamide]	0.4	3.3	
COc1ccc(-c2cn3ncc(C(=O)Nc4cc(NC(=O)CN5CC(C)(C)C5)cnc4C)c3s2)cn1 [Example 395, N-(5-(2-(3,3-dimethylazetidin-1-yl)acetamido)-2-methylpyridin-3-yl)-2-(6-methoxypyridin-3-yl)pyrazolo[5,1-b]thiazole-7-carboxamide]	0.4	6.2	
Cc1ncc(NC(=O)CN2CC(C)(C)C2)cc1NC(=O)c1cnn2cc(-c3cncnc3C)sc12 [Example 398, N-(5-(2-(3,3-dimethylazetidin-1-yl)acetamido)-2-methylpyridin-3-yl)-2-(4-methylpyrimidin-5-yl)pyrazolo[5,1-b]thiazole-7-carboxamide]	6.8	169	
COCCn1cc(-c2cn3ncc(C(=O)Nc4cc(NC(=O)CN5CC6CCC5CC6)cnc4C)c3s2)cn1 [Example 331, N-(5-(2-(2-azabicyclo[2.2.2]octan-2-yl)acetamido)-2-methylpyridin-3-yl)-2-(1-(2-methoxyethyl)-1H-pyrazol-4-yl)pyrazolo[5,1-b]thiazole-7-carboxamide]	0.4	2.7	
COCCn1cc(-c2cn3ncc(C(=O)Nc4cc(NC(=O)CN5CCCCC5)cnc4C)c3s2)cn1 [Example 338, 2-(1-(2-methoxyethyl)-1H-pyrazol-4-yl)-N-(2-methyl-5-(2-(piperidin-1-yl)acetamido)pyridin-3-yl)pyrazolo[5,1-b]thiazole-7-carboxamide]	0.4	4.6	
COCCn1cc(-c2cn3ncc(C(=O)Nc4cc(NC(=O)CN5C[C@H]6CC[C@@H]5C6)cnc4C)c3s2)cn1 [Example 334, N-(5-(2-((1R,4S)-2-azabicyclo[2.2.1]heptan-2-yl)acetamido)-2-methylpyridin-3-yl)-2-(1-(2-methoxyethyl)-1H-pyrazol-4-yl)pyrazolo[5,1-b]thiazole-7-carboxamide]	0.5		11.7
Cc1ncc(NC(=O)CN2C[C@H](CO)OC(C)(C)C2)cc1NC(=O)c1cnn2cc(-c3cnn(C)c3)sc12 [Example 376, (R)—N-(5-(2-(6-(hydroxymethyl)-2,2-dimethylmorpholino)acetamido)-2-methylpyridin-3-yl)-2-(1-methyl-1H-pyrazol-4-yl)pyrazolo[5,1-b]thiazole-7-carboxamide]	0.8	154	
COCCn1cc(-c2cn3ncc(C(=O)Nc4cc(NC(=O)CN5CCCC56CCC6)cnc4C)c3s2)cn1 [Example 332, N-(5-(2-(5-azaspiro[3.4]octan-5-yl)acetamido)-2-methylpyridin-3-yl)-2-(1-(2-methoxyethyl)-1H-pyrazol-4-yl)pyrazolo[5,1-b]thiazole-7-carboxamide]	0.6	4.5	
COCCn1cc(-c2cn3ncc(C(=O)Nc4cc(NC(=O)[C@H]5CCCN5C(C)C)cnc4C)c3s2)cn1 [Example 344, (R)—N-(5-(1-isopropylpyrrolidine-2-carboxamido)-2-methylpyridin-3-yl)-2-(1-(2-methoxyethyl)-1H-pyrazol-4-yl)pyrazolo[5,1-b]thiazole-7-carboxamide]	4.3	59.2	
Cc1ncc(NC(=O)CN2CCC3(CC3)C2)cc1NC(=O)c1cnn2cc(-c3cnn(CCO)c3)sc12 [Example 32, N-(5-(2-(5-azaspiro[2.4]heptan-5-yl)acetamido)-2-methylpyridin-3-yl)-2-(1-(2-hydroxyethyl)-1H-pyrazol-4-yl)pyrazolo[5,1-b]thiazole-7-carboxamide]	0.7	20.5	
Cc1ncc(NC(=O)CN2C[C@H](C)O[C@@H](C)C2)cc1NC(=O)c1cnn2cc(-c3cnn4c3OCCC4)sc12 (relative stereo) [Example 375, 2-(6,7-dihydro-5H-pyrazolo[5,1-b][1,3]oxazin-3-yl)-N-(5-(2-(trans-2,6-dimethylmorpholino)acetamido)-2-methylpyridin-3-yl)pyrazolo[5,1-b]thiazole-7-carboxamide]	0.6	10.2	
COc1cnccc1-c1cn2ncc(C(=O)Nc3cc(NC(=O)CN4CC(C)(C)C4)cnc3C)c2s1 [Example 399, N-(5-(2-(3,3-dimethylazetidin-1-yl)acetamido)-2-methylpyridin-3-yl)-2-(3-methoxypyridin-4-yl)pyrazolo[5,1-b]thiazole-7-carboxamide]	0.2	1.3	
Cc1ncc(NC(=O)[C@@H]2CCCN2C(C)C)cc1NC(=O)c1cnn2cc(-c3cnn4c3OCCC4)sc12 [Example 346, (S)-2-(6,7-dihydro-5H-pyrazolo[5,1-b][1,3]oxazin-3-yl)-N-(5-(1-isopropylpyrrolidine-2-carboxamido)-2-methylpyridin-3-yl)pyrazolo[5,1-b]thiazole-7-carboxamide]	0.5	6.8	
COc1ncccc1-c1cn2ncc(C(=O)Nc3cc(NC(=O)CN4CC5(COC5)C4)cnc3C)c2s1 [Example 404, N-(5-(2-(2-oxa-6-azaspiro[3.3]heptan-6-yl)acetamido)-2-methylpyridin-3-yl)-2-(2-methoxypyridin-3-yl)pyrazolo[5,1-b]thiazole-7-carboxamide]	0.3	7.2	
Cc1ncc(NC(=O)CN2CCC3(CCC3)C2)cc1NC(=O)c1cnn2cc(-c3cnn(CCO)c3)sc12 [Example 30, N-(5-(2-(6-azaspiro[3.4]octan-6-yl)acetamido)-2-methylpyridin-3-yl)-2-(1-(2-hydroxyethyl)-1H-pyrazol-4-yl)pyrazolo[5,1-b]thiazole-7-carboxamide]	0.5	16.5	
Cc1ncc(C(=O)NCCN2CCCC2(C)C)cc1NC(=O)c1cnn2cc(-c3cnn(Cc4cc(OCc5ccccc5)no4)c3)sc12 [Example 362, 2-(1-((3-(benzyloxy)isoxazol-5-yl)methyl)-1H-pyrazol-4-yl)-N-(5-((2-(2,2-dimethylpyrrolidin-1-yl)ethyl)carbamoyl)-2-methylpyridin-3-yl)pyrazolo[5,1-b]thiazole-7-carboxamide]	0.5	62.3	
COc1ncccc1-c1cn2ncc(C(=O)Nc3cc(NC(=O)CN4CC(C)(OC)C4)cnc3C)c2s1 [Example 396, N-(5-(2-(3-methoxy-3-methylazetidin-1-yl)acetamido)-2-methylpyridin-3-yl)-2-(2-methoxypyridin-3-yl)pyrazolo[5,1-b]thiazole-7-carboxamide]	0.3	4.3	
COCCn1cc(-c2cn3ncc(C(=O)Nc4cc(NC(=O)CN5CCCC6(CC6)C5)cnc4C)c3s2)cn1 [Example 335, N-(5-(2-(5-azaspiro[2.5]octan-5-yl)acetamido)-2-methylpyridin-3-yl)-2-(1-(2-methoxyethyl)-1H-pyrazol-4-yl)pyrazolo[5,1-b]thiazole-7-carboxamide]	0.4	3.5	
